# Assay results from patent US9695155B2, “Herbicidal substituted pyrimidinyloxy benzene compounds” (E. I. DU PONT DE NEMOURS AND COMPANY, priority 2013, dated 2017).
# Experiments:
# Italian ryegrass = test: Test C postemergence; assay type: in vivo, Lolium multiflorum
# Outline: (§1)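 Rated visually on 0–100 (100 = complete control) after 13–15 days under glass. Treatments went onto freshly seeded loam/sand soil or onto emerged plants at the 1- to 4-leaf stage, using a surfactant-containing solvent formulation.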
# soybean = test: Test C postemergence; assay type: in vivo, Glycine max
# Outline: as §1
# blackgrass = test: Test C postemergence; assay type: in vivo, Alopecurus myosuroides
# Outline: as §1
# barnyardgrass [1] = test: Test C postemergence; assay type: in vivo, Echinochloa crus-galli
# Outline: as §1
# lambsquarters = test: Test C postemergence; assay type: in vivo, Chenopodium album
# Outline: as §1
# pigweed = test: Test A postemergence; assay type: in vivo, Amaranthus retroflexus
# Outline: (§2)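 Pre- and postemergence greenhouse screen. Soil: loam + sand. Spray carrier: solvent mixture, non-phytotoxic, with surfactant. Post timing at 1–2 leaves, height 2–10 cm. Readout: visual injury on a 0–100 scale roughly 10 days after application, untreated plants as reference.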
# rice = test: Test B flooded paddy test; assay type: in vivo, Oryza sativa; conditions: Flood, 250 g ai/ha, 0 to 100 scale where 0 is no effect and 100 is complete control
# Outline: (§3)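 Post-emergence paddy-water application at the 2-leaf stage, with 3 cm flood kept for the whole test. Response was judged visually relative to controls after 13 to 15 greenhouse days, 0 indicating no effect and 100 complete control.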
# sedge, umbrella = test: Test B flooded paddy test; assay type: in vivo, Cyperus difformis; conditions: Flood, 250 g ai/ha, 0 to 100 scale where 0 is no effect and 100 is complete control
# Outline: as §3
# large (Lg) crabgrass = test: Test C postemergence; assay type: in vivo, Digitaria sanguinalis
# Outline: as §1
# galium = test: Test C postemergence; assay type: in vivo, Galium aparine
# Outline: as §1
# yellow nutsedge = test: Test C postemergence; assay type: in vivo, Cyperus esculentus
# Outline: as §1
# barnyardgrass [2] = test: Test A preemergence; assay type: in vivo, Echinochloa crus-galli
# Outline: as §2
# ragweed = test: Test C postemergence; assay type: in vivo, Ambrosia elatior
# Outline: as §1
# [3] = 31 g ai/ha, postemergence, visual rating, scale 0 to 100 (0 no effect, 100 complete control), 13 to 15 days
# [4] = 16 g ai/ha, postemergence, 0 is no effect, 100 is complete control
# [5] = 125 g ai/ha, postemergence, visual rating, scale 0 to 100 (0 no effect, 100 complete control)
# [6] = Postemergence, 62 g ai/ha, scale 0 to 100 (0 no effect, 100 complete control)
# [7] = Postemergence, 31 g ai/ha, scale 0 to 100 (0 no effect, 100 complete control), 13 to 15 days
# [8] = 1000 g ai/ha, 0 to 100 scale, 0 no effect, 100 complete control
structure (smiles),measurement,setting,value
"FC(F)c1cn(-c2ccccc2Oc2ncc(Cl)cn2)nn1 [Compound 147, 5-chloro-2-[2-[4-(difluoromethyl)-1H-1,2,3-triazol-1-yl]phenoxy]pyrimidine]","Ryegrass, Italian plant response rating",Italian ryegrass; [3],0
same,pest or weed control at 16 g/ha,"Italian ryegrass; Lolium multiflorum, post-emergence, 16 g ai/ha, postemergence, 0 is no effect, 100 is complete control, read-out: Plant response rating (0 to 100), Ryegrass, Italian",0%
same,pest or weed control at 125 g/ha,"Italian ryegrass; Lolium multiflorum, post-emergence, 125 g ai/ha, postemergence, visual rating, scale 0 to 100 (0 no effect, 100 complete control), read-out: Plant response rating, Ryegrass, Italian",5%
same,pest or weed control at 62 g/ha,"Italian ryegrass; Lolium multiflorum, post-emergence, Postemergence, 62 g ai/ha, scale 0 to 100 (0 no effect, 100 complete control), read-out: Plant response rating, Ryegrass, Italian",0%
same,Soybean plant response rating,soybean; [3],65
same,"Soybean plant response rating (crop injury, 0-100 scale) at 16 g/ha","soybean; Glycine max, post-emergence, 16 g ai/ha, postemergence, 0 is no effect, 100 is complete control",65%
same,"Soybean plant response rating (crop injury, 0-100 scale) at 125 g/ha","soybean; Glycine max, post-emergence, 125 g ai/ha, postemergence, visual rating, scale 0 to 100 (0 no effect, 100 complete control), read-out: Plant response rating, Soybean",90%
same,"Soybean plant response rating (crop injury, 0-100 scale) at 62 g/ha","soybean; Glycine max, post-emergence, Postemergence, 62 g ai/ha, scale 0 to 100 (0 no effect, 100 complete control)",85%
same,pest or weed control at 16 g/ha,"blackgrass; Alopecurus myosuroides, post-emergence, 16 g ai/ha, postemergence, 0 is no effect, 100 is complete control, read-out: Plant response rating (0 to 100), Blackgrass",0%
same,pest or weed control at 31 g/ha,"blackgrass; Alopecurus myosuroides, post-emergence, 31 g ai/ha, postemergence, visual rating, scale 0 to 100 (0 no effect, 100 complete control), 13 to 15 days, read-out: Blackgrass plant response rating",0%
same,pest or weed control at 125 g/ha,"blackgrass; Alopecurus myosuroides, post-emergence, 125 g ai/ha, postemergence, visual rating, scale 0 to 100 (0 no effect, 100 complete control), read-out: Plant response rating, Blackgrass",10%
same,pest or weed control at 62 g/ha,"blackgrass; Alopecurus myosuroides, post-emergence, Postemergence, 62 g ai/ha, scale 0 to 100 (0 no effect, 100 complete control), read-out: Plant response rating, Blackgrass",0%
same,pest or weed control at 16 g/ha,"barnyardgrass [1]; Echinochloa crus-galli, post-emergence, 16 g ai/ha, postemergence, 0 is no effect, 100 is complete control, read-out: Plant response rating (0 to 100), Barnyardgrass",0%
same,pest or weed control at 31 g/ha,"barnyardgrass [1]; Echinochloa crus-galli, post-emergence, 31 g ai/ha, postemergence, visual rating, scale 0 to 100 (0 no effect, 100 complete control), 13 to 15 days, read-out: Barnyardgrass plant response rating",5%
same,pest or weed control at 125 g/ha,"barnyardgrass [1]; Echinochloa crus-galli, post-emergence, 125 g ai/ha, postemergence, visual rating, scale 0 to 100 (0 no effect, 100 complete control), read-out: Plant response rating, Barnyardgrass",10%
same,pest or weed control at 62 g/ha,"barnyardgrass [1]; Echinochloa crus-galli, post-emergence, Postemergence, 62 g ai/ha, scale 0 to 100 (0 no effect, 100 complete control), read-out: Plant response rating, Barnyardgrass",5%
same,Lambsquarters plant response rating,lambsquarters; [3],75
same,pest or weed control at 16 g/ha,"lambsquarters; Chenopodium album, post-emergence, 16 g ai/ha, postemergence, 0 is no effect, 100 is complete control, read-out: Plant response rating (0 to 100), Lambsquarters",60%
same,pest or weed control at 125 g/ha,"lambsquarters; Chenopodium album, post-emergence, 125 g ai/ha, postemergence, visual rating, scale 0 to 100 (0 no effect, 100 complete control), read-out: Plant response rating, Lambsquarters",98%
same,pest or weed control at 62 g/ha,"lambsquarters; Chenopodium album, post-emergence, Postemergence, 62 g ai/ha, scale 0 to 100 (0 no effect, 100 complete control), read-out: Plant response rating, Lambsquarters",90%
same,pest or weed control at 500 g/ha,"pigweed; Amaranthus retroflexus, post-emergence, 500 g ai/ha, 0 to 100 scale where 0 is no effect and 100 is complete control, read-out: Plant response rating, Pigweed",100%
same,pest or weed control at 125 g/ha,"pigweed; Amaranthus retroflexus, post-emergence, 240 h, 125 g ai/ha, 0 to 100 scale where 0 is no effect and 100 is complete control, read-out: Pigweed plant response rating",100%
same,plant injury at 250 g/ha,"rice; Oryza sativa, read-out: Plant response rating, Rice",35%
same,pest or weed control at 250 g/ha,"sedge, umbrella; Cyperus difformis, read-out: Plant response rating, Sedge, Umbrella",75%
same,pest or weed control at 16 g/ha,"large (Lg) crabgrass; Digitaria sanguinalis, post-emergence, 16 g ai/ha, postemergence, 0 is no effect, 100 is complete control, read-out: Plant response rating (0 to 100), Crabgrass, Large",5%
same,pest or weed control at 31 g/ha,"large (Lg) crabgrass; Digitaria sanguinalis, post-emergence, 31 g ai/ha, postemergence, visual rating, scale 0 to 100 (0 no effect, 100 complete control), 13 to 15 days, read-out: Crabgrass, Large plant response rating",5%
same,pest or weed control at 125 g/ha,"large (Lg) crabgrass; Digitaria sanguinalis, post-emergence, 125 g ai/ha, postemergence, visual rating, scale 0 to 100 (0 no effect, 100 complete control), read-out: Plant response rating, Crabgrass, Large",10%
same,pest or weed control at 62 g/ha,"large (Lg) crabgrass; Digitaria sanguinalis, post-emergence, Postemergence, 62 g ai/ha, scale 0 to 100 (0 no effect, 100 complete control), read-out: Plant response rating, Crabgrass, Large",10%
same,pest or weed control at 16 g/ha,"galium; Galium, post-emergence, 16 g ai/ha, postemergence, 0 is no effect, 100 is complete control, read-out: Plant response rating (0 to 100), Galium",85%
same,pest or weed control at 31 g/ha,"galium; Galium, post-emergence, 31 g ai/ha, postemergence, visual rating, scale 0 to 100 (0 no effect, 100 complete control), 13 to 15 days, read-out: Galium plant response rating",90%
same,pest or weed control at 125 g/ha,"galium; Galium, post-emergence, 125 g ai/ha, postemergence, visual rating, scale 0 to 100 (0 no effect, 100 complete control), read-out: Plant response rating, Galium",90%
same,pest or weed control at 62 g/ha,"galium; Galium, post-emergence, Postemergence, 62 g ai/ha, scale 0 to 100 (0 no effect, 100 complete control), read-out: Plant response rating, Galium",90%
same,"Nutsedge, Yellow plant response rating",yellow nutsedge; [3],0
same,pest or weed control at 16 g/ha,"yellow nutsedge; Cyperus, post-emergence, 16 g ai/ha, postemergence, 0 is no effect, 100 is complete control, read-out: Plant response rating (0 to 100), Nutsedge, Yellow",0%
same,pest or weed control at 125 g/ha,"yellow nutsedge; Cyperus, post-emergence, 125 g ai/ha, postemergence, visual rating, scale 0 to 100 (0 no effect, 100 complete control), read-out: Plant response rating, Nutsedge, Yellow",5%
same,pest or weed control at 62 g/ha,"yellow nutsedge; Cyperus, post-emergence, Postemergence, 62 g ai/ha, scale 0 to 100 (0 no effect, 100 complete control), read-out: Plant response rating, Nutsedge, Yellow",0%
same,pest or weed control at 125 g/ha,"barnyardgrass [2]; Echinochloa crus-galli, pre-emergence, 240 h, 125 g ai/ha, 0 to 100 scale where 0 is no effect and 100 is complete control, read-out: Plant response rating, Barnyardgrass",100%
same,pest or weed control at 500 g/ha,"barnyardgrass [2]; Echinochloa crus-galli, pre-emergence, 240 h, 500 g ai/ha, 0 to 100 scale where 0 is no effect and 100 is complete control, read-out: Barnyardgrass plant response rating",100%
same,Ragweed plant response rating,ragweed; [3],65
same,pest or weed control at 16 g/ha,"ragweed; Ambrosia artemisiifolia, post-emergence, 16 g ai/ha, postemergence, 0 is no effect, 100 is complete control, read-out: Plant response rating (0 to 100), Ragweed",40%
same,pest or weed control at 125 g/ha,"ragweed; Ambrosia artemisiifolia, post-emergence, 125 g ai/ha, postemergence, visual rating, scale 0 to 100 (0 no effect, 100 complete control), read-out: Plant response rating, Ragweed",85%
same,pest or weed control at 62 g/ha,"ragweed; Ambrosia artemisiifolia, post-emergence, Postemergence, 62 g ai/ha, scale 0 to 100 (0 no effect, 100 complete control), read-out: Plant response rating, Ragweed",75%
FCc1cn(-c2ccccc2Oc2ncc(Cl)cn2)nn1 [Compound 123],"Plant response rating (0 to 100), Ryegrass, Italian",Italian ryegrass; [4],0
same,"Plant response rating, Ryegrass, Italian",Italian ryegrass; [5],0
same,"Plant response rating, Ryegrass, Italian",Italian ryegrass; [6],0
same,"Plant response rating (0 to 100), Soybean",soybean; [4],45
same,"Plant response rating, Soybean",soybean; [5],90
same,"Plant response rating, Soybean",soybean; [6],65
same,"Plant response rating (0 to 100), Blackgrass",blackgrass; [4],0
same,"Plant response rating, Blackgrass",blackgrass; [5],0
same,"Plant response rating, Blackgrass",blackgrass; [7],0
same,"Plant response rating, Blackgrass",blackgrass; [6],0
same,"Plant response rating (0 to 100), Barnyardgrass",barnyardgrass [1]; [4],10
same,"Plant response rating, Barnyardgrass",barnyardgrass [1]; [5],15
same,"Plant response rating, Barnyardgrass",barnyardgrass [1]; [7],15
same,"Plant response rating, Barnyardgrass",barnyardgrass [1]; [6],15
same,"Plant response rating (0 to 100), Lambsquarters",lambsquarters; [4],60
same,"Plant response rating, Lambsquarters",lambsquarters; [5],85
same,"Plant response rating, Lambsquarters",lambsquarters; [6],85
same,"Plant response rating, Pigweed",pigweed; [8],100
same,"Plant response rating, Rice",rice,0
same,"Plant response rating, Sedge, Umbrella","sedge, umbrella",40
same,"Plant response rating (0 to 100), Crabgrass, Large",large (Lg) crabgrass; [4],0
same,"Plant response rating, Crabgrass, Large",large (Lg) crabgrass; [5],5
same,"Plant response rating, Crabgrass, Large",large (Lg) crabgrass; [6],5
same,"Plant response rating (0 to 100), Galium",galium; [4],40
same,"Plant response rating, Galium",galium; [5],90
same,"Plant response rating, Galium",galium; [6],85
same,"Plant response rating (0 to 100), Nutsedge, Yellow",yellow nutsedge; [4],5
same,"Plant response rating, Nutsedge, Yellow",yellow nutsedge; [5],10
same,"Plant response rating, Nutsedge, Yellow",yellow nutsedge; [6],10
same,"Plant response rating, Barnyardgrass",barnyardgrass [2]; [8],100
same,"Plant response rating (0 to 100), Ragweed",ragweed; [4],35
same,"Plant response rating, Ragweed",ragweed; [5],75
same,"Plant response rating, Ragweed",ragweed; [6],70
